Data on 30 compounds can be found in patent US7163946B2 (Ligand Pharmaceuticals Incorporated, priority 2002, dated 2007).

Assay type in all cases: cell-based
For assay [1], the target named is T1, hPR (Homo sapiens, UniProt P06401).
T1 sequence (P06401 1-933): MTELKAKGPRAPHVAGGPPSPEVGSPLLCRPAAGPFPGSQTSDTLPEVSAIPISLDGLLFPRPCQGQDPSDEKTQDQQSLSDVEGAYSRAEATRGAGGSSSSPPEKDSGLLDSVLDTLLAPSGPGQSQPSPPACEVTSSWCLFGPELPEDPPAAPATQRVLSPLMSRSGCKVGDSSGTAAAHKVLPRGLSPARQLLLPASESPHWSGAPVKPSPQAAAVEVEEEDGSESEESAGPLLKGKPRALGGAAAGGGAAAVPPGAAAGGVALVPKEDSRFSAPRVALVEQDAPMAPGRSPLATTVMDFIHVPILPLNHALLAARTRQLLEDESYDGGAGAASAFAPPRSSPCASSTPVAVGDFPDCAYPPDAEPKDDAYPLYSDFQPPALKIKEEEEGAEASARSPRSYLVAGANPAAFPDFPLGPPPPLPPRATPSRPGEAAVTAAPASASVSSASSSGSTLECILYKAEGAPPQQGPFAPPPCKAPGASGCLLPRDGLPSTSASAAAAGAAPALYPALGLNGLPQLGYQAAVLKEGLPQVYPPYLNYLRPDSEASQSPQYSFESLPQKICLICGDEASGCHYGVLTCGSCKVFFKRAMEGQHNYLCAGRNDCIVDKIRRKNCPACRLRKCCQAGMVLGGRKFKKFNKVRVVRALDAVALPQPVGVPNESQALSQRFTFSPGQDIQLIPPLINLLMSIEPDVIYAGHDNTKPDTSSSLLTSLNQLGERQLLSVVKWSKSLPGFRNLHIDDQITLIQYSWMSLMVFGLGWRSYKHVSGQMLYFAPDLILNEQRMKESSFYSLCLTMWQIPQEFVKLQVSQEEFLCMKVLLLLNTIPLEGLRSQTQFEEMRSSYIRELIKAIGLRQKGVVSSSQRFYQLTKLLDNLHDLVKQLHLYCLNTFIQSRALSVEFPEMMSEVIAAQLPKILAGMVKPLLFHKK
The assay can be described thus: hPR cotransfection assay in CV-1 cells, antagonist mode. As to conditions: maximal inhibition of reference agonist at EC50 concentration; for Emax: CV-1, CV-1 cells, read-out: hPR Antagonist CV-1 Cells Eff. (%).
Method: (§1) Antagonist efficacy was determined as a function (%) of maximal inhibition of a reference agonist at EC50 concentration. All the cotransfection experiments were carried out in 96-well plates by automation (Beckman Biomomek automated workstation).

Assay [2] addresses T2, hPR (Homo sapiens, UniProt P06401).
T2 sequence (P06401 679-933 limits assumed): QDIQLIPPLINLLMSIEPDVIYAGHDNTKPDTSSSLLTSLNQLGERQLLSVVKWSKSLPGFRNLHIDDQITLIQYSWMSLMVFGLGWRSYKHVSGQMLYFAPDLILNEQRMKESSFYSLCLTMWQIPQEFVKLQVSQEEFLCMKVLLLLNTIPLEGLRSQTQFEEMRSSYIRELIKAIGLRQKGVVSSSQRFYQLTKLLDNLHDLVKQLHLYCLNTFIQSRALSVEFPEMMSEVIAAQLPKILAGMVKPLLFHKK
Nature of the assay: T47D alkaline phosphatase assay, antagonist mode. The following applies: T47D human breast cancer cells; for Emax: read-out: hPR Antagonists T47D Cells Eff. (%).
From the text: (§2) The potential tissue-selectivities of the selected analogues were examined by using the T47D alkaline phosphatase assay that was developed from human breast cancer cells with endogenous PRs.

Assay [3] addresses T2, hPR. The assay can be described thus: T47D alkaline phosphatase assay, agonist mode. The following applies: T47D human breast cancer cells; for Emax: T47D, read-out: hPR Agonist T47D cells Eff. (%).
From the text: as §2
The target in assay [4] is T1, hPR. Nature of the assay: hPR cotransfection assay in CV-1 cells, agonist mode. The following applies: for Emax: CV-1, CV-1 cells, read-out: hPR Agonist CV-1 Cells Eff. (%); for Emax / hPR Agonist CV-1 Cells Eff. (%): relative to maximal response of progesterone as 100%; for EC50: Tables 3 and 4, values without footnote.
Method: as §1
[5] abbreviates: read-out: hPR agonist potencies (EC50 in nM) in the cotransfection assay.

Where two headings read alike, the source gives them in different places.

As for `CC(=O)[C@H]1CC[C@H]2[C@@H]3CCC4=CC(=O)CC[C@]4(C)[C@H]3CC[C@]12C` [Prog., progesterone, reference compound], the Emax on hPR [1] was below 20%; on hPR [2], below 20%; on hPR [3] it was 100%; at hPR [4], 100%.

As to `CN(C)c1ccc([C@H]2C[C@]3(C)[C@@H](CC[C@]3(O)CCCO)[C@@H]3CCC4=CC(=O)CCC4=C32)cc1` [ZK299, reference compound], the Emax at hPR [1] is 99%; at hPR [2] it was 86%; at hPR [3] it was below 20%; on hPR [4], below 20%.

For the compound `CC#C[C@]1(O)CC[C@H]2[C@@H]3CCC4=CC(=O)CCC4=C3[C@@H](c3ccc(N(C)C)cc3)C[C@@]21C` [RU486, mifepristone, reference compound], the “hPR Antagonist CV-1 Cells Eff. (%)” value at hPR [1] came out at 94%. The “hPR Antagonists T47D Cells Eff. (%)” value at hPR [2] is 94%. Further, the “hPR Agonist T47D cells Eff. (%)” value on hPR [3] was “na (na = not active (i.e. efficacy of <20 and potency of >10,000))”. Further, at hPR [4], the “hPR Agonist CV-1 Cells Eff. (%)” value is “na (na = not active (i.e. efficacy of <20 and potency of >10,000))”.

Take `CC(=O)O[C@]1(C(C)=O)CC[C@H]2[C@@H]3C[C@H](C)C4=CC(=O)CC[C@]4(C)[C@H]3CC[C@@]21C` [MPA, reference compound]: the “hPR Antagonist CV-1 Cells Eff. (%)” value on hPR [1] was “na (na = not active (i.e. efficacy of <20 and potency of >10,000))”. For the same compound, on hPR [2], the “hPR Antagonists T47D Cells Eff. (%)” value was “na (na = not active (i.e. efficacy of <20 and potency of >10,000))”. Also, the “hPR Agonist T47D cells Eff. (%)” value on hPR [3] was determined as 114%. For the same compound, the “hPR Agonist CV-1 Cells Eff. (%)” value at hPR [4] was 88%.

Take `C#C[C@]1(O)CC[C@H]2[C@@H]3CCC4=CC(=O)CC[C@@H]4[C@H]3CC[C@@]21CC` [Levonorgestrel, reference compound]: the Emax on hPR [1] was below 20%; on hPR [2], below 20%; at hPR [3] it was 96%; on hPR [4] it was 216%.

On to `C[C@]12CCC(=O)C=C1[C@@H]1C[C@@H]1[C@H]1[C@@H]3[C@@H]4C[C@@H]4[C@@]4(CCC(=O)O4)[C@@]3(C)CC[C@@H]12` [Drospirenone, reference compound], for which the Emax at hPR [1] was below 20%; at hPR [2], below 20%; on hPR [3] it was 117%; at hPR [4] it was 87%.

For orientation: EC50 means the concentration needed to bring the measured effect to its halfway point. Take `CC1=CC(C)(C)Nc2ccc3c(c21)/C(=C/c1cc(F)ccc1F)Oc1cc(O)ccc1-3` [Formula II X=8-OH 2,5-diF-Ph, reference compound]: the EC50 at hPR [4] (setting [5]) stood at 10 nM.

Turning to `CC1=CC(C)(C)Nc2ccc3c(c21)/C(=C/c1cc(F)ccc1F)Oc1ccc(F)cc1-3` [Formula II X=9-F 2,5-diF-Ph, reference compound], the EC50 on hPR [4] (setting [5]) stood at 3 nM.

Turning to `COc1ccc2c(c1)O/C(=C\c1ccncc1)c1c-2ccc2c1C(C)=CC(C)(C)N2` [Formula II X=8-OMe 4-pyridinyl, reference compound], the EC50 on hPR [4] (setting [5]) is 36 nM.

`CC1=CC(C)(C)Nc2ccc3c(c21)C(c1ccc(Br)cc1)Oc1c(F)cc(F)cc1-3` (racemic) [Compound 36, (±)-7,9-difluoro-5-(4-bromophenyl)-1,2-dihydro-2,2,4-trimethyl-5H-chromeno[3,4-f]quinoline]: at hPR [4] (setting [5]), the EC50 came out at 4.96 nM.

With `CC1=CC(C)(C)Nc2ccc3c(c21)/C(=C/c1ccccc1C)Oc1ccc(Cl)cc1-3` [Formula II X=9-Cl 2-Me-Ph, reference compound], the EC50 on hPR [4] (setting [5]) came out at 8.5 nM.

Consider `CC1=CC(C)(C)Nc2ccc3c(c21)C(C)Oc1c(F)cc(F)cc1-3` (racemic) [Compound 44, (±)-7,9-difluoro-1,2-dihydro-2,2,4,5-tetramethyl-5H-chromeno[3,4-f]quinoline], for which the EC50 on hPR [4] (hPR agonist potencies (EC50 in nM) in the cotransfection assay) amounted to 1.4 nM.

As to `CC1=CC(C)(C)Nc2ccc3c(c21)/C(=C/c1ccccc1)Oc1cc(F)ccc1-3` [Formula II X=8-F Phenyl, reference compound], on hPR [4] (setting [5]), the EC50 came to 187 nM.

Take `CC1=CC(C)(C)Nc2ccc3c(c21)C(c1cccc(C(F)(F)F)c1)Oc1c(F)cc(F)cc1-3` (racemic) [Compound 56, (±)-7,9-difluoro-5-[3-(trifluoromethyl)phenyl]-1,2-dihydro-2,2,4-trimethyl-5H-chromeno[3,4-f]quinoline]: the EC50 on hPR [4] (setting [5]) turned out to be 1.6 nM.

As for `C=CCC1Oc2ccc(F)cc2-c2ccc3c(c21)C(C)=CC(C)(C)N3` (stereo not drawn) [Formula I X=9-F Allyl, reference compound], the EC50 at hPR [4] (setting [5]) came to 7.5 nM.

Regarding `CC1=CC(C)(C)Nc2ccc3c(c21)/C(=C/c1ccncc1C)Oc1ccc(F)cc1-3` [Formula II X=9-F 3-Me-4-pyridinyl, reference compound], the concentration for a half-maximal effect (EC50) on hPR [4] (setting [5]) came to 2 nM.

Turning to `CC1=CC(C)(C)Nc2ccc3c(c21)/C(=C/c1ccccc1F)Oc1ccc(F)cc1-3` [Formula II X=9-F 2-F-Ph, reference compound], the EC50 on hPR [4] (setting [5]) stood at 7.3 nM.

On to `CC1=CC(C)(C)Nc2ccc3c(c21)/C(=C/c1ccccc1)Oc1ccc(Cl)cc1-3` [Formula II X=9-Cl Phenyl, reference compound], for which the EC50 on hPR [4] (setting [5]) amounted to 6.24 nM.

As for `CC1=CC(C)(C)Nc2ccc3c(c21)C(c1ccc2c(c1)OCO2)Oc1ccccc1-3` (stereo not drawn) [Formula I X=H Benzodioxol-5-yl, reference compound], the EC50 at hPR [4] (setting [5]) came to 48 nM.

For the compound `CC1=CC(C)(C)Nc2ccc3c(c21)/C(=C/c1cccc(F)c1)Oc1cc(F)ccc1-3` [Formula II X=8-F 3-F-Ph, reference compound], the EC50 on hPR [4] (setting [5]) was determined as 109 nM.

`CC1=CC(C)(C)Nc2ccc3c(c21)/C(=C/c1ccccc1C)Oc1c(F)cc(F)cc1-3` [Compound 81, 7,9-difluoro-5(Z)-(2-methylbenzylidene)-1,2-dihydro-2,2,4-trimethyl-5H-chromeno[3,4-f]quinoline]: the EC50 at hPR [4] (setting [5]) amounted to 1.66 nM.

As to `COc1ccc2c(c1)-c1ccc3c(c1/C(=C/c1ccccc1)O2)C(C)=CC(C)(C)N3` [Formula II X=9-OMe Phenyl, reference compound], the EC50 on hPR [4] (setting [5]) worked out at 67 nM.

For the compound `CCC1Oc2c(F)cc(F)cc2-c2ccc3c(c21)C(C)=CC(C)(C)N3` (racemic) [Compound 46, (±)-7,9-difluoro-5-ethyl-1,2-dihydro-2,2,4-trimethyl-5H-chromeno[3,4-f]quinoline], the EC50 at hPR [4] (setting [5]) was determined as 6.93 nM.

Consider `CC1=CC(C)(C)Nc2ccc3c(c21)C(c1cccc(F)c1)Oc1c(F)cc(F)cc1-3` (racemic) [Compound 40, (±)-7,9-difluoro-5-(3-fluorophenyl)-1,2-dihydro-2,2,4-trimethyl-5H-chromeno[3,4-f]quinoline], for which the EC50 on hPR [4] (setting [5]) amounted to 6.66 nM.

In the case of `CC1=CC(C)(C)Nc2ccc3c(c21)/C(=C/c1cc(F)ccc1F)Oc1ccc(O)cc1-3` [Formula II X=9-OH 2,5-diF-Ph, reference compound], the EC50 on hPR [4] (setting [5]) amounted to 10 nM.

`CC1=CC(C)(C)Nc2ccc3c(c21)/C(=C/c1ccccc1)Oc1ccc(O)cc1-3` [Formula II X=9-OH Phenyl, reference compound]: the EC50 on hPR [4] (setting [5]) came to 54.4 nM.

As to `CC1=CC(C)(C)Nc2ccc3c(c21)/C(=C/c1cc(F)ccc1C)Oc1ccccc1-3` [Formula II X=H 2-Me-5-F-Ph, reference compound], at hPR [4] (setting [5]), the EC50 came out at 2.6 nM.

With `CC1=CC(C)(C)Nc2ccc3c(c21)/C(=C/c1ccc(F)cc1)Oc1c(F)cc(F)cc1-3` [Compound 16, 7,9-difluoro-5(Z)-(4-fluorobenzylidene)-1,2-dihydro-2,2,4-trimethyl-5H-chromeno[3,4-f]quinoline], the EC50 on hPR [4] (setting [5]) was 3.7 nM.

As to `CC1=CC(C)(C)Nc2ccc3c(c21)C(c1cccc(C)c1)Oc1ccccc1-3` (stereo not drawn) [Formula I X=H 3-Me-Ph, reference compound], on hPR [4] (setting [5]), the EC50 was 145 nM.

Take `CC1=CC(C)(C)Nc2ccc3c(c21)C(c1ccc(Cl)cc1)Oc1c(F)cc(F)cc1-3` (racemic) [Compound 43, (±)-7,9-difluoro-5-(4-chlorophenyl)-1,2-dihydro-2,2,4-trimethyl-5H-chromeno[3,4-f]quinoline]: at hPR [4] (setting [5]), the EC50 is 5.1 nM.
